Test results: patent US20120129838A1, “Composition for Preventing and Treating Alopecia Disorder Containing Morgalanthamine Compounds as an Active Ingredient” (The Industry & Academic Cooperation in Chungnam National …, priority 2009, published 2012)
Where a name gives a salt, the structure may show the parent alone.

Assays:
[1] = tested on: rat vibrissa follicles; experiment: Growth of rat vibrissa follicles in organ culture; details: time point of 21 days, isolated Wistar rat vibrissa follicles
Method: In order to measure an effect of the norgalanthamine compound prepared in Experimental Example 1 on hair growth, the following experiment was performed using a method described in the publication (Philpott M P, et al., Cyclical changes in rat vibrissa follicles maintained in vitro. J Invest Dermatol. 115, pp. 1152-1155, 2000),
A 3-week-old male Wistar rat (Japan SLC, Hamamatsu, Japan) was purchased from Central Lab. Animal Inc. (Korea), anesthetized with ethyl ether, and killed by cervical vertebral dislocation. The left and right mystacial pads of the rat were extracted and put into an E/P buffer ((EBSS, Earle's balanced salts solution, Sigma Mo., USA)+(PBS, phosphate-buffered saline, Sigma Mo., USA)) supplemented with 100 units/ml penicillin and 100 μg/ml streptomycin (Gibco Inc, NY, USA). Vibrissa follicles were carefully isolated under a steroscopic dissecting microscope. Until the hair follicles were completely isolated, the hair follicles were put into a Petri dish containing an E/P buffer, and incubated at 37° C. for 1 hour in a 5% CO2 pyrostat. 500 μl of William E medium (Gibco Inc, NY, USA) containing 2 mM. L-glutamine (Gibco Inc, NY, USA), 10 μg/ml insulin (Sigma Mo., USA), 50 nM hydrocortisone (Sigma Mo., USA) and 100 units/ml penicillin-100 μg/ml streptomycin was put into each well of a 24-well plate, and one hair follicle was added to each well, and incubated at […] in a 5% CO2 pyrostat. 10 to 12 hair follicles were used in each experimental group, and a medium was changed with a fresh medium every 3 days during the incubation. […]
Photographs of shapes of vibrissa follicles were taken using a microscope (Olympus, Japan). Lengths of hair follicles were measured at time points of 0, 7, 14 and 21 days using an image analyzer (DP controller; Olympus, Japan). An average variation in lengths of the hair follicles was calculated, and a growth level was measured by comparing the average variation with an average length of the control.

[2] = tested on: rat vibrissa immortalized dermal papilla cell line; experiment: Proliferation of dermal papilla cells (MTT assay); type: cell-based; details: incubated for 4 days, absorbance at 540 nm
Method: A rat vibrissa immortalized dermal papilla cell line obtained by immortalizing dermal papilla cells isolated from rat whiskers (Filsell W, et al., Transfection of rat dermal papilla cells with a gene encoding a temperature-sensitive polyomavirus large T antigen generates cell lines a differentiated phenotype., J. Cell Sci, 107, pp. 1761-1772, 1994) was incubated at 37° C. in a DMEM (Hyclone Inc, USA) medium containing […] (Gibco Inc, NY, USA) and 10% heat-inactivated fetal bovine serum (FBS, Gibco Inc, NY, USA) using a 5% CO2 pyrostat, and subcultured every 3 days.
The cultured dermal papilla cells (1.0×10^4 cells/ml) were put into each well of a 96-well plate, and incubated for 24 hours. Then, a used culture solution was changed with a serum-free DMEM medium, and cultured again for 24 hours. Thereafter, the cultured solution was treated with 0.01 and 0.1 μM concentrations of the norgalanthamine compound of Experimental Example 1, and a 1 μM concentration of a positive control, minoxidil sulfate (M.S., Sigma, Mo., USA), respectively. The resulting mixture was incubated for 4 days, 50 μl of MTT (Sigma, Mo., USA) was added thereto, and the mixture was reacted for 4 hours. A supernatant was removed, and a pellet was dissolved in 200 μl of DMSO, and then measured for absorbance at 540 nm using a microplate reader (Amersham Pharmacia Biotech, NY, USA). An average absorbance value of each sample group was calculated, and a level of the hair proliferation was examined by comparing the average absorbance value with an absorbance value of the control.

SMILES | growth of hair fiber compared to that of the control (100%) ([1]; 1 uM, positive control) [%] | proliferation of dermal papilla cells compared to the control (100%) ([2]; 1 μM, positive control) [%] | growth of hair fiber compared to that of the control (100%) ([1]; 0.01 uM) [%] | growth of hair fiber compared to that of the control (100%) ([1]; 0.1 uM) [%] | proliferation of dermal papilla cells compared to the control (100%) ([2]; 0.01 μM) [%] | proliferation of dermal papilla cells compared to the control (100%) ([2]; 0.1 μM) [%]
Nc1cc(N2CCCCC2)nc(N)[n+]1OS(=O)(=O)[O-] [minoxidil sulfate, reference compound] | 135.03±38.8 | 114.9±4.5 | – | – | – | –
COc1ccc2c3c1OC1C[C@@H](O)C=C[C@@]31CCNC2 (stereo partly drawn) [norgalanthamine] | – | – | 128.7±13.8 | 139.2±10.3 | 114.0±4.3 | 106.2±5.6
